Measured values as given in patent US7754718B2 (priority 2004, dated 2010).

Legend:
HSV-2 = experiment: In vitro antiviral assay for HSV-2; assay type: cell-based, Herpes Simplex Virus 2; conditions: Human alphaherpesvirus 2, read-out: Antiviral Activities (EC50, μM) HSV-2
Description: (§1) The antiviral assays for HBV, (Doong et al., 1991, Proc. Natl. Acad. Sci. U.S.A. 88:8495-8499) HSV-1, (Bastow et al., 1983, Antimicrob. Agents Chemother. 23: 914-917) HSV-2, (Bastow et al., 1983, Antimicrob. Agents Chemother. 23:914-917) EBV, (Yao et al., 1993, Antimicrob. Agents Chemother. 37:1420-1425), CMV (Andreoni et al., 2002, J. Med. Virol. 67:33-40) and HIV (Mellors et al., 1992, Mol. Pharmacol. 41: 446-451) were performed according to the previously reported procedures. Anti-HCV activities were tested in Huh-Luc/neo cell line. Cells were seeded into 48-well plates and grown until confluent. Different concentrations of drugs were added into media (DMEM, 10% dFBS) and incubated for 3 days. At the end of 3-day treatment, medium were removed and 50 μl of Passive lysis buffer (Promega) were added. Cell lysate was shaken at room temperature for 15 min. 30 μl/well of cell lysate was transferred to another 96-well plate, 100 μl/well of luciferase activity assay substrate was added into plate and read by a luminometer (Amersham) immediately.

EBV = experiment: In vitro antiviral assay for EBV; assay type: cell-based, Epstein-Barr Virus; conditions: human gammaherpesvirus 4, read-out: Antiviral Activities (EC50, μM) EBV
Description: as §1

HBV = experiment: In vitro antiviral assay for HBV (Table 1); assay type: cell-based, Hepatitis B virus; conditions: Hepatitis B virus, read-out: Antiviral Activities (EC50, μM) HBV
Description: as §1

CMV = experiment: In vitro antiviral assay for CMV; assay type: cell-based, cytomegalovirus; conditions: Human betaherpesvirus 5, read-out: Antiviral Activities (EC50, μM) CMV
Description: as §1

HSV-1 = experiment: In vitro antiviral assay for HSV-1; assay type: cell-based, Herpes Simplex Virus 1; conditions: Human alphaherpesvirus 1, read-out: Antiviral Activities (EC50, μM) HSV-1
Description: as §1

HCV = experiment: Anti-HCV activity in Huh-Luc/neo cell line, luciferase activity after 3-day treatment; assay type: cell-based, Hepatitis C virus; conditions: Hepatitis C virus, 72 h, Huh-Luc/neo cells, 3 days; for EC50: given as a bound only, read-out: Antiviral Activities (EC50, μM) HCV
Description: as §1

HIV = experiment: In vitro antiviral assay for HIV; assay type: cell-based, human immunodeficiency virus; conditions: Human immunodeficiency virus 1, read-out: Antiviral Activities (EC50, μM) HIV, in vitro; (T) after a value means toxic
Description: as §1

[1] = Cell cytotoxicity assay on CEM cells; assay type: cell-based; conditions: human, read-out: Cytotoxity (ID50, μM) CEM
Description: (§2) Cytotoxicities of test compounds on MT-2 (Mellors et al., 1992 Mol. Pharmacol. 41:446-451) and CEM (Grove et al., 1995, Cancer Res. 55:3008-3011) cells were determined according to the previously reported procedures. Hepg2 cells were seeded at a density of 10^4 cells/ml/well in 24-well plates and cultured in MEME supplemented with 10% FBS at 37° C. and 5% CO2. Each test compound at different concentrations was added on the second day of the culture and the cells were incubated for another 3 days. At the end of the incubation period, the medium was removed and 0.5 ml of 0.5% methylene blue in 50% ethanol (v/v) was added to each well and set at room temperature for 30-60 minutes. The methylene blue was removed; the plates were washed with water and allowed to air dry. Once dry, 1% sarcosyl was added to dissolve the stained cell layer. The absorbance at 595 nm was measured with a microplate reader (Molecular Devices Corp. Sunnyvale, Calif.). The cytotoxicity to CEM cell was calculated as described previously (Grove et al., 1995, Cancer Res. 55 (14): 3008-3011).

[2] = Cell cytotoxicity assay on MT-2 cells; assay type: cell-based; conditions: human, read-out: Cytotoxity (ID50, μM) MT-2
Description: as §2

[3] = read-out: HCV percent of inhibition

SMILES	EC50 (HSV-2)	EC50 (EBV)	EC50 (HBV)	EC50 (CMV)	EC50 (HSV-1)	EC50 (HCV)	EC50 (HIV)	IC50 [1]	IC50 [2]	inhibition at 3 µM (HCV; at 3 μM, read-out: HCV percent of inhibition)	melting point	inhibition at 10 µM (HCV; [3])
O=C1OC(=O)c2c1cc1ccc3c(c1c2-c1ccc2c(c1)OCO2)OCO3 [Compound 1, 10-Benzo[1,3]dioxol-5-yl-furo[3′,4′:6,7]naphtho[1,2-d][1,3]dioxole-7,9-dione]	> 50 µM	> 20 µM	> 10 µM	17.6 µM	> 50 µM	> 10 µM	> 100 µM	> 50 µM	> 100 µM	–	–	–
CN1Cc2cc3ccc4c(c3c(-c3ccc5c(c3)OCO5)c2C1=O)OCO4 [Compound 17, 10-Benzo[1,3]dioxol-5-yl-8-methyl-7,8-dihydro-1,3-dioxa-8-aza-dicyclopenta[a,g]naphthalen-9-one]	14 µM	> 20 µM	> 10 µM	–	14 µM	–	> 26 µM	27 µM	26 µM	29%	242 to 244 °C	–
CN1Cc2c(cc3ccc4c(c3c2-c2ccc3c(c2)OCO3)OCO4)C1=O [Compound 19, 10-Benzo[1,3]dioxol-5-yl-8-methyl-8,9-dihydro-1,3-dioxa-8-aza-dicyclopenta[a,g]naphthalen-7-one]	1 µM	> 20 µM	1.6 µM	–	0.67 µM	> 3 µM	> 8 µM	6 µM	8 µM	–	234 to 236 °C	–
O=C1c2cc3ccc4c(c3c(-c3ccc5c(c3)OCO5)c2CN1CCCO)OCO4 [Compound 21, 10-Benzo[1,3]dioxol-5-yl-8-(3-hydroxy-propyl)-8,9-dihydro-1,3-dioxa-8-aza-dicyclopenta[a,g]naphthalen-7-one]	7 µM	> 20 µM	> 20 µM	–	5 µM	–	5 µM	22 µM	22 µM	–	213 to 215 °C	58%
CC(=O)NN1C(=O)c2cc3ccc4c(c3c(-c3ccc5c(c3)OCO5)c2C1=O)OCO4 [Compound 25, N-(10-Benzo[1,3]dioxol-5-yl-7,9-dioxo-7,9-dihydro-1,3-dioxa-8-aza-dicyclopenta[a,g]naphthalen-8-yl)-acetamide]	> 40 µM	> 20 µM	> 10 µM	–	> 40 µM	> 10 µM	> 100 µM	93 µM	> 100 µM	–	281 to 283 °C	–
COC(=O)c1cc2ccc3c(c2c(-c2ccc4c(c2)OCO4)c1C(=O)OC)OCO3 [Compound 30, 9-Benzo[1,3]dioxol-5-yl-naphtho[1,2-d][1,3]dioxole-7,8-dicarboxylic acid dimethyl ester]	> 50 µM	> 20 µM	> 20 µM	–	> 50 µM	–	> 28 µM	50 µM	28 µM	–	157 to 159 °C	93%
COC(=O)c1c(C(=O)O)cc2ccc3c(c2c1-c1ccc2c(c1)OCO2)OCO3 [Compound 31, 9-Benzo[1,3]dioxol-5-yl-naphtho[1,2-d][1,3]dioxole-7,8-dicarboxylic acid 8-methyl ester]	> 50 µM	> 20 µM	> 20 µM	–	> 50 µM	> 10 µM	> 90 µM	74 µM	90 µM	–	273 to 275 °C	–
O=C(O)c1cc2ccc3c(c2c(-c2ccc4c(c2)OCO4)c1C(=O)O)OCO3 [Compound 32, 9-Benzo[1,3]dioxol-5-yl-naphtho[1,2-d][1,3]dioxole-7,8-dicarboxylic acid]	> 50 µM	> 20 µM	> 20 µM	–	> 50 µM	> 10 µM	> 100 µM	> 100 µM	> 100 µM	–	253 °C (dec.)	–
CCOC(=O)c1c(C(=O)OCC)c(-c2ccc3c(c2)OCO3)c2c3c(ccc2c1O)OCO3 [Compound 33, 9-Benzo[1,3]dioxol-5-yl-6-hydroxy-naphtho[1,2-d][1,3]dioxole-7,8-dicarboxylic acid diethyl ester]	> 50 µM	> 10 µM	> 10 µM	–	> 50 µM	–	> 15 µM	39 µM	15 µM	–	192 to 194 °C	62%
O=C1OCc2c1c(-c1ccc3c(c1)OCO3)c1c3c(ccc1c2O)OCO3 [Compound 34, 10-Benzo[1,3]dioxol-5-yl-6-hydroxy-7H-furo[3′,4′:6,7]naphtho[1,2-d][1,3]dioxol-9-one]	28 µM	> 10 µM	> 10 µM	–	23 µM	> 10 µM	> 13 µM	31 µM	13 µM	–	257 °C (dec.)	–
O=C1OCc2c1cc1c(Br)cc3c(c1c2-c1ccc2c(c1)OCO2)OCO3 [Compound 38, 10-Benzo[1,3]dioxol-5-yl-5-bromo-9H-furo[3′,4′:6,7]naphtho[1,2-d][1,3]dioxol-7-one]	> 50 µM	> 15 µM	> 60 µM	–	> 50 µM	> 10 µM	> 100 µM	100 µM	> 100 µM	–	256 °C (dec.)	–
O=C1OCc2c1cc1c(I)cc3c(c1c2-c1ccc2c(c1)OCO2)OCO3 [Compound 39, 10-Benzo[1,3]dioxol-5-yl-5-iodo-9H-furo[3′,4′:6,7]naphtho[1,2-d][1,3]dioxol-7-one]	> 25 µM	> 10 µM	> 40 µM	–	> 25 µM	> 10 µM	> 80 µM	70 µM	80 µM	–	255 °C (dec.)	–
O=C1NCc2c1cc1c(Br)cc3c(c1c2-c1ccc2c(c1)OCO2)OCO3 [Compound 40, 10-Benzo[1,3]dioxol-5-yl-5-bromo-8,9-dihydro-1,3-dioxa-8-aza-dicyclopenta[a,g]naphthalen-7-one]	> 20 µM	> 20 µM	> 20 µM	–	6.5 µM	–	> 54 µM	38 µM	54 µM	–	285 °C (dec.)	32%
O=c1[nH][nH]c(=O)c2c(-c3ccc4c(c3)OCO4)c3c4c(cc(Cl)c3cc12)OCO4 [Compound 41, 11-Benzo[1,3]dioxol-5-yl-5-chloro-8,9-dihydro-1,3-dioxa-8,9-diaza-cyclopenta[a]anthracene-7,10-dione]	> 40 µM	> 20 µM	> 10 µM	–	7 µM	–	> 30 µM	> 100 µM	30 µM	–	316 °C (dec.)	60%
O=c1[nH][nH]c(=O)c2c(-c3ccc4c(c3)OCO4)c3c4c(cc(I)c3cc12)OCO4 [Compound 43, 11-Benzo[1,3]dioxol-5-yl-5-iodo-8,9-dihydro-1,3-dioxa-8,9-diaza-cyclopenta[a]anthracene-7,10-dione]	> 40 µM	> 20 µM	> 10 µM	–	> 40 µM	–	2 µM	40 µM	35 µM	–	300 °C (dec.)	52%
